We go through one compound from patent US5236936A, “Pyridine compounds which are useful as angiotensin II receptor antagonists” (Imperial Chemical Industries PLC, priority 1991, dated 1993).

For assay [1], the target named is T1, AII receptors (guinea pig adrenal gland cell surface membrane fraction) (Cavia porcellus, UniProt Q9WV26).
T1 construct: from tissue; host or cells: guinea pig adrenal gland, cell surface membrane fraction
T1 sequence (Q9WV26 1-359): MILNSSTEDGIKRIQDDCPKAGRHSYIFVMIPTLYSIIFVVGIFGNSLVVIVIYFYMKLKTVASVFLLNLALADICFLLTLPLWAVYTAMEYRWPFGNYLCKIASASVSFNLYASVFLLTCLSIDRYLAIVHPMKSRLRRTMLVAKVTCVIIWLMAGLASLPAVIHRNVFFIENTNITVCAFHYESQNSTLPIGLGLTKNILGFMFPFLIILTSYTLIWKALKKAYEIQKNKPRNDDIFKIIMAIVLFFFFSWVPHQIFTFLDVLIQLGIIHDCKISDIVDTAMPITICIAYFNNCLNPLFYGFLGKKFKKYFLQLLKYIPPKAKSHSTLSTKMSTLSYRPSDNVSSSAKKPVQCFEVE
In words: Test A: displacement of radiolabelled AII binding to guinea pig adrenal gland cell surface membranes. To be noted: read-out: IC50 (concentration for 50% displacement of radiolabelled AII binding). As to the method:
Test A: This in vitro procedure involves the incubation of the test compound initially at a concentration of 100 micromolar (or less) in a buffered mixture containing fixed concentrations of radiolabelled AII and a cell surface membrane fraction prepared from a suitable angiotensin target tissue. In this test, the source of cell surface membranes is the guinea pig adrenal gland which is well known to respond to AII. Interaction of the radiolabelled AII with its receptors (assessed as radiolabel bound to the particulate membrane fraction following removal of unbound radiolabel by a rapid filtration procedure such as is standard in such studies) is antagonized by compounds which also bind to the membrane receptor sites and the degree of antagonism (observed in the test as displacement of membrane-bound radioactivity) is determined readily by comparing the receptor-bound radioactivity in the presence of the test compound at the specified test concentration with a control value determined in the absence of the test compound. Using this procedure compounds showing at least 50% displacement of radiolabelled AII binding at a concentration of 10^-4 M are retested at lower concentrations to determine their potency. […]

Assay [2] concerns angiotensin II-induced pressor responses. In words: Test C: antagonism of angiotensin II-induced pressor responses in terminally-anaesthetised or conscious rats. Type of assay: in vivo. The following applies: iv, rat, i.v. administration. As to the method: Test C: This in vivo test involves using terminally-anaesthetised or conscious rats in which an arterial catheter has been implanted under anaesthesia for the measurement of changes in blood pressure. The AII antagonistic effects of the test compound following oral or parenteral administration, are assessed against angiotensin II-induced pressor responses. To ensure that the effect is specific, the effect of the test compound on vasopressin-induced pressor responses may also be determined in the same preparation.

One may read the ED50 as the dose at which the effect has come halfway, by size or by number of responders. As for `CCc1cc(OCc2ccc(-c3ccccc3-c3nnn[nH]3)cc2)c(-c2ccncc2)c(C)n1.Cl.Cl` [Example 3, 6-ethyl-2-methyl-3-(4-pyridyl)-4-[(2'-(1H-tetrazol-5-yl)biphenyl-4-yl)methoxy]pyridine dihydrochloride], the IC50 in assay [1] was 5.5 nM. Also, in assay [2], the ED50 turned out to be 0.18 mg/kg.
